Measured values from ChEMBL document CHEMBL1201862, “PubChem BioAssay data set” (2004).
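Assay format: 96-well plates, 48-hour exposure. The concentration for 50% growth inhibition is given as GI50.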 Activity calls are given as the source filed them. Cut-off read from the data, not from the text of the source: active = GI50 up to about 1.1 µM and inactive = higher.

Experiments:
Assay in all cases: NCI-60 cell line screen, 48 h
ACHN = tested on: ACHN
CAKI-1 = tested on: CAKI-1
NCI-H23 = tested on: NCI-H23
EKVX = tested on: EKVX
HOP-62 = tested on: HOP-62
Malme-3M = tested on: Malme-3M
HCT-15 = tested on: HCT-15
OVCAR-8 = tested on: OVCAR-8
MDA-MB-435 = tested on: MDA-MB-435
786-0 = tested on: 786-0
NCI-H226 = tested on: NCI-H226
SF-268 = tested on: SF-268
LOX IMVI = tested on: LOX IMVI
M14 = tested on: M14
DU-145 = tested on: DU-145
IGROV-1 = tested on: IGROV-1
SN12C = tested on: SN12C
SNB-19 = tested on: SNB-19
MOLT-4 = tested on: MOLT-4

Structure (SMILES)	GI50 (ACHN)	GI50 (CAKI-1)	GI50 (NCI-H23)	GI50 (EKVX)	GI50 (HOP-62)	GI50 (Malme-3M)	GI50 (HCT-15)	GI50 (OVCAR-8)	GI50 (MDA-MB-435)	GI50 (786-0)	GI50 (NCI-H226)	GI50 (SF-268)	GI50 (LOX IMVI)	GI50 (M14)	GI50 (DU-145)	GI50 (IGROV-1)	GI50 (SN12C)	GI50 (SNB-19)	GI50 (MOLT-4)
O=c1ccn(C2OC(CN(O)CCC3C(O)C(CO)OC3n3ccc(=O)[nH]c3=O)C(O)C2O)c(=O)[nH]1 (stereo unspecified)	> 100 µM (inactive)	> 100 µM (inactive)	> 100 µM (inactive)	> 100 µM (inactive)	> 100 µM (inactive)	> 100 µM (inactive)	> 100 µM	> 100 µM (inactive)	> 100 µM (inactive)	> 100 µM (inactive)	> 100 µM (inactive)	> 100 µM (inactive)	> 100 µM (inactive)	> 100 µM (inactive)	> 100 µM (inactive)	> 100 µM (inactive)	> 100 µM (inactive)	> 100 µM (inactive)	–
COc1ccc(-c2cc(-c3ccc(Nc4ccnc5cc(Cl)ccc45)cc3)nc(N)c2C#N)c2ccccc12	> 100 µM (inactive)	> 100 µM (inactive)	> 100 µM (inactive)	> 100 µM (inactive)	> 100 µM (inactive)	> 100 µM (inactive)	> 100 µM	> 100 µM (inactive)	> 100 µM (inactive)	> 100 µM (inactive)	> 100 µM (inactive)	> 100 µM (inactive)	> 100 µM (inactive)	> 100 µM (inactive)	> 100 µM (inactive)	> 100 µM (inactive)	> 100 µM (inactive)	> 100 µM (inactive)	> 100 µM (inactive)
C=CCC1NCCC2=C1C(S(=O)(=O)c1ccc(C)cc1)c1ccccc12 (stereo unspecified)	7.16 µM (inactive)	6.92 µM (inactive)	18 µM (inactive)	18 µM (inactive)	14.5 µM (inactive)	11.2 µM (inactive)	11.9 µM	14.3 µM (inactive)	5.47 µM (inactive)	12.9 µM (inactive)	16.8 µM (inactive)	14.9 µM (inactive)	8.91 µM (inactive)	11.8 µM (inactive)	11.9 µM (inactive)	8.11 µM (inactive)	14.4 µM (inactive)	16.5 µM (inactive)	6.56 µM (inactive)
